In patent publication US8871680B2, “Herbicidal compositions comprising 4-amino-3-chloro-5-fluoro-6-(4-chloro-2-fluoro-3-methoxyphenyl) pyridine-2-carboxylic acid or a derivative thereof and a di-methoxy-pyrimidine and derivatives thereof” (Dow AgroSciences LLC, priority 2012, dated 2014):

Assays:
[1] = test system: IPOHE; test: Postemergence foliar-applied weed control, direct seeded rice (greenhouse); format: in vivo, Ipomoea hederacea Jacq.
Excerpt: (§1) Seeds or nutlets of the desired test plant species were planted in a soil matrix prepared by mixing a loam or sandy loam soil (e.g., 28.6 percent silt, 18.8 percent clay, and 52.6 percent sand, with a pH of about 5.8 and an organic matter content of about 1.8 percent) and calcareous grit in an 80 to 20 ratio. The soil matrix was contained in plastic pots with a volume of 1 quart and a surface area of 83.6 square centimeters (cm^2). When required to ensure good germination and healthy plants, a fungicide treatment and/or other chemical or physical treatment was applied. The plants were grown for 8-22 days in a greenhouse with an approximate 14 hr photoperiod which was maintained at about 29° C. during the day and 26° C. during the night. Nutrients (Peters Excel® 15-5-15 5-Ca 2-Mg and iron chelate) were applied in the irrigation solution as needed and water was added on a regular basis. Supplemental lighting was provided with overhead metal halide 1000-Watt lamps as necessary. The plants were employed for testing when they reached the first through fourth true leaf stage.
(§2) Treatments consisted of the acid or esters of 4-amino-3-chloro-5-fluoro-6-(4-chloro-2-fluoro-3-methoxy-phenyl)pyridine-2-carboxylic acid (Compound A), each formulated as an SC (suspension concentrate), and various herbicidal components alone and in combination. Forms of compound A were applied on an acid equivalent basis.
(§3) Other herbicidal components were applied on an active ingredient basis and included the dimethoxy-pyrimidine acid acetolactate synthase (ALS)-inhibiting herbicides bispyribac-sodium formulated as Regiment® 80WP, pyribenzoxim (technical grade material), pyriminobac-methyl formulated as Hie-Clean® 1.2% GR dissolved in water, and pyriftalid (technical grade material).
(§4) Treatment requirements were calculated based upon the rates being tested, the concentration of active ingredient or acid equivalent in the formulation, and a 12 mL application volume at a rate of 187 L/ha.
(§5) For treatments comprised of formulated compounds, measured amounts of compounds were placed individually in 25 mL glass vials and diluted in a volume of 1.25% (v/v) Agri-Dex® crop oil concentrated to obtain 12× stock solutions. […] Application solutions were prepared by adding an appropriate amount of each stock solution (e.g., 1 mL) and diluted to the appropriate final concentrations with the addition of 10 mL of an aqueous mixture of 1.25% (v/v) crop oil concentrate so that the final spray solutions contained 1.25+/−0.005% (v/v) crop oil concentrate.
(§6) For treatments comprised of technical compounds, weighed amounts can be placed individually in 25 mL glass vials and dissolved in a volume of 97:3 v/v acetone/DMSO to obtain 12× stock solutions. […] Application solutions can be prepared by adding an appropriate amount of each stock solution (e.g., 1 mL) and diluted to the appropriate final concentrations with the addition of 10 mL of an aqueous mixture of 1.5% (v/v) crop oil concentrate so that the final spray solutions contain 1.25% (v/v) crop oil concentrate. When technical materials are used, the concentrated stock solutions can be added to the spray solutions so that the final acetone and DMSO concentrations of the application solutions are 16.2% and 0.5%, respectively.
(§7) For treatments comprised of formulated and technical compounds, weighed amounts of the technical materials were placed individually in 25 mL glass vials and dissolved in a volume of 97:3 v/v acetone/DMSO to obtain 12× stock solutions, and measured amounts of the formulated compounds were placed individually in 25 mL glass vials and diluted in a volume of 1.5% (v/v) crop oil concentrate or water to obtain 12× stock solutions. […]

[2] = test system: ECHOR; test: In-water applied weed control, transplanted paddy rice (greenhouse); format: in vivo, Echinochloa oryzoides (Ard.) Fritsch; conditions: 42.2 gae/ha
Protocol: (§8) Weed seeds or nutlets of the desired test plant species were planted in puddled soil (mud) prepared by mixing a shredded, non-sterilized mineral soil (50.5 percent silt, 25.5 percent clay, and 24 percent sand, with a pH of about 7.6 and an organic matter content of about 2.9 percent) and water at a 1:1 volumetric ratio. The prepared mud was dispensed in 365 mL aliquots into 16-ounce (oz.) non-perforated plastic pots with a surface area of 86.59 square centimeters (cm^2) leaving a headspace of 3 centimeters (cm) in each pot. Mud was allowed to dry overnight prior to planting or transplanting. Rice seeds were planted in Sun Gro MetroMix® 306 planting mixture, which typically has a pH of 6.0 to 6.8 and an organic matter content of about 30 percent, in plastic plug trays. Seedlings at the second or third leaf stage of growth were transplanted into 860 mL of mud contained in 32-oz. non-perforated plastic pots with a surface area of 86.59 cm^2 4 days prior to herbicide application. The paddy was created by filling the headspace of the pots with 2.5 to 3 cm of water. When required to ensure good germination and healthy plants, a fungicide treatment and/or other chemical or physical treatment was applied. The plants were grown for 4-22 days in a greenhouse with an approximate 14 hr photoperiod which was maintained at about 29′C during the day and 26° C. during the night. Nutrients were added as Osmocote® (19:6:12, N:P:K+minor nutrients) at 2 g per 16-oz. pot and 4 g per 32-oz. pot. Water was added on a regular basis to maintain the paddy flood, and supplemental lighting was provided with overhead metal halide 1000-Watt lamps as necessary. The plants were employed for testing when they reached the first through fourth true leaf stage.
(§9) Treatments consisted of the acid or esters of 4-amino-3-chloro-5-fluoro-6-(4-chloro-2-fluoro-3-methoxy-phenyl)pyridine-2-carboxylic acid (compound A) each formulated as an SC and various herbicidal components alone and in combination. Forms of compound A were applied on an acid equivalent basis.
(§10) Other herbicidal components were applied on an active ingredient basis and included the dimethoxy-pyrimidine acid acetolactate synthase (ALS)-inhibiting herbicides bispyribac-sodium formulated as Regiment® 80 WP, pyriminobac-methyl formulated as Hie Clean®, and pyriftalid (technical grade material).
(§11) Treatment requirements for each compound or herbicidal component were calculated based upon the rates being tested, the concentration of active ingredient or acid equivalent in the formulation, an application volume of 2 mL per component per pot, and an application area of 86.59 cm^2 per pot.
(§12) For formulated compounds, a measured amount was placed in an individual 100 or 200 mL glass vial and was dissolved in a volume of 1.25% (v/v) Agri-Dex® crop oil concentrate to obtain application solutions.
(§13) For technical grade compounds, a weighed amount was placed in an individual 100 to 200 mL glass vial and was dissolved in a volume of acetone to obtain concentrated stock solutions. […] The concentrated stock solutions obtained were diluted with an equivalent volume of an aqueous mixture containing 2.5% (v/v) crop oil concentrate so that the final application solutions contained 1.25% (v/v) crop oil concentrate.
(§14) Applications were made by injecting with a pipetter appropriate amounts of the application solutions, individually and sequentially, into the aqueous layer of the paddy.
(§15) Control plants were treated in the same manner with the solvent blank. […]

[3] = test system: ECHCO; test: as above; format: in vivo, Echinochloa colona (L.) Link
Protocol: as §8, with “Water was added on a regular basis to maintain the paddy flood, and supplemental lighting was provided with overhead metal halide 1000-Watt lamps as necessary. The plants were employed for testing when they reached the first through fourth true leaf stage.” left out
as §11
For formulated compounds, a measured amount was placed in an individual 100 or 200 mL glass vial and was dissolved in a volume of 1.25% (v/v) Agri-Dex® crop oil concentrate to obtain application solutions. […]

[4] = test system: FIMMI; test: as above; format: in vivo, Fimbristylis miliacea (L.) Vahl
Protocol: as §8, §9, §10, §11, §12, §13, §14
(§16) Control plants were treated in the same manner with the solvent blank. Applications were made so that all treated plant material received the same concentrations of acetone and crop oil concentrate.
(§17) The treated plants and control plants were placed in a greenhouse as described above and water was added as needed to maintain a paddy flood. […]

[5] = test system: ECHCG; test: as above; format: in vivo, Echinochloa crusgalli (L.) Beauv.
Protocol: as §8, §9, §10, §11, §12, §13, §14, §16, §17

[6] = test system: SCPMA; test: as above; format: in vivo, Bolboschoenus maritimus (L.) Palla
Protocol: as §8, §9, §10, §11, §12, §13, §14, §16, §17

[7] = test system: LEFCH; test: as above; format: in vivo, Leptochloa chinensis (L.) Nees
Protocol: as §8, §9, §10, §11, §12, §13, §14, §15

[8] = test system: BRAPP; test: Postemergence foliar-applied weed control, direct seeded rice (greenhouse); format: in vivo, Brachiaria platyphylla (Griseb.) Nash; conditions: 4.38 gae/ha
Excerpt: as §1, with “stage. […]” for “stage.”
as §4
For treatments comprised of formulated compounds, measured amounts of compounds were placed individually in 25 mL glass vials and diluted in a volume of 1.25% (v/v) Agri-Dex® crop oil concentrated to obtain 12× stock solutions. […]
as §7

[9] = test system: DIGSA; test: as above; format: in vivo, Digitaria sanguinalis (L.) Scop.
Excerpt: as §1, §2, §3, §4, §5
as §6, with “When technical materials are used, the concentrated stock solutions can be added to the spray solutions so that the final acetone and DMSO concentrations of the application solutions are 16.2% and 0.5%, respectively.” left out
as §7

[10] = test system: CYPRO; test: In-water applied weed control, transplanted paddy rice (greenhouse); format: in vivo, Cyperus rotundus L.
Protocol: as §8, §9, §10, §11, §12, §13, §14, §16, §17

`COc1c(Cl)ccc(-c2nc(C(=O)O)c(Cl)c(N)c2F)c1F` [Compound A Acid, 4-amino-3-chloro-6-(4-chloro-2-fluoro-3-methoxyphenyl)-5-fluoropyridine-2-carboxylic acid] was tested, and the “Visual Weed Control (%)-24 DAA IPOHE Obs” value ([1]; 4.38 gae/ha) was 10%, the “Visual Weed Control (%)-24 DAA IPOHE Obs” value ([1]; 8.75 gae/ha) was 10% and the “Visual Weed Control (%)-24 DAA IPOHE Obs” value ([1]; 17.5 gae/ha) was 30%. For the same compound, the “Visual Weed Control (%)-24 DAA IPOHE Obs” value ([1]; 17.5 gae/ha, second part of Table 3) was 25%, the “Visual Weed Control (%)-24 DAA IPOHE Obs” value ([1]; 35 gae/ha, second part of Table 3) was 48% and the “Visual Weed Control (%)-20 DAA ECHOR Obs” value [2] was 18%. For the same compound, the “Visual Weed Control (%)-21 DAA ECHCO Obs” value ([3]; 8.75 gae/ha) was 0%, the “Visual Weed Control (%)-21 DAA ECHCO Obs” value ([3]; 17.5 gae/ha) was 20% and the “Visual Weed Control (%)-21 DAA FIMMI Obs” value ([4]; 8.75 gae/ha) was 50%. The “Visual Weed Control (%)-21 DAA FIMMI Obs” value ([4]; 17.5 gae/ha) was 85%, the “Visual Weed Control (%)-21 DAA FIMMI Obs” value ([4]; 35 gae/ha) was 85% and the “Visual Weed Control (%) - 20 DAA ECHCG Obs” value ([5]; 8.75 gae/ha) was 0%. For the same compound, the “Visual Weed Control (%) - 20 DAA ECHCG Obs” value ([5]; 17.5 gae/ha) was 35%, the “Visual Weed Control (%) - 20 DAA ECHCG Obs” value ([5]; 35 gae/ha) was 55% and the “Visual Weed Control (%) - 20 DAA ECHCG Obs” value ([5]; 42.2 gae/ha) was 18%. For the same compound, the “Visual Weed Control (%)-21 DAA SCPMA Obs” value ([6]; 8.75 gae/ha) was 0%, the “Visual Weed Control (%)-21 DAA SCPMA Obs” value ([6]; 17.5 gae/ha) was 0% and the “Visual Weed Control (%)-20 DAA SCPMA Obs” value ([6]; 35 gae/ha) was 0%. For the same compound, the “Visual Weed Control (%)-21 DAA SCPMA Obs” value ([6]; 35 gae/ha) was 0%, the “Visual Weed Control (%)-20 DAA SCPMA Obs” value ([6]; 42.2 gae/ha) was 0% and the “Visual Weed Control (%)-20 DAA SCPMA Obs” value ([6]; 70 gae/ha) was 0%. The “Visual Weed Control (%)-21 DAA LEFCH Obs” value ([7]; 8.75 gae/ha) was 0%, the “Visual Weed Control (%)-21 DAA LEFCH Obs” value ([7]; 17.5 gae/ha) was 0% and the “Visual Weed Control (%)-20 DAA LEFCH Obs” value ([7]; 42.2 gae/ha) was 15%. The “Visual Weed Control (%)-22 DAA BRAPP Obs” value [8] was 45%, the “Visual Weed Control (%)-24 DAA DIGSA Obs” value ([9]; 4.38 gae/ha) was 20% and the “Visual Weed Control (%)-24 DAA DIGSA Obs” value ([9]; 8.75 gae/ha) was 25%. The “Visual Weed Control (%)-24 DAA DIGSA Obs” value ([9]; 17.5 gae/ha) was 25%, the “Visual Weed Control (%)-21 DAA CYPRO Obs” value ([10]; 8.75 gae/ha) was 30% and the “Visual Weed Control (%)-21 DAA CYPRO Obs” value ([10]; 17.5 gae/ha) was 40%. The “Visual Weed Control (%)-21 DAA CYPRO Obs” value ([10]; 35 gae/ha) was 70%.
